Experimental data published in PubChem BioAssay (NCI).
Values joined by “and” are separate entries in the source; they are usually repeats but may differ in a detail not shown here. Identical values can stand only once.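 Growth conditions: 96-well plates. Treatment: test compound, 48 hours, 5 concentrations. Analysis: linear interpolation between bracketing concentrations; unreached endpoints set to highest concentration. Abbreviation: GI50, concentration required for 50% inhibition of growth. TGI: concentration producing complete growth inhibition.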

The molecules below were run on 786-0 renal (assay: NCI-60 cell line screen, 48 h).
With `CC1=NNC(=O)C1C(CC(=O)c1c[nH]c2ccccc12)C(=O)O` (stereo not given) the TGI was > 100 µM.
For `C=C([C@@]1(O)C[C@H]2[C@H](CCC2(OC)OC)[C@@H]2c3ccccc3O[C@@H]21)[Si](C)(C)C`, the TGI was > 100 µM.
In the case of `COc1ccc2c(c1)CCN1CCc3ccccc3CC21` (stereo not given), the TGI is reported as > 100 µM.
In the case of `CN(C)CCOC1(Cc2ccc(F)cc2)CCC(C(C)(C)C)CC1` (stereo not given), the TGI is reported as 15.9 µM and 11.7 µM.
`Nc1ccc(C(=O)N2CCC[C@H]2CO)c(N)c1` was tested, and the TGI was > 100 µM.
`On1c(-c2ccccc2)nc2ccccc2c1=S` was tested, and the TGI was > 100 µM.
`Nc1ccc(S2(c3ccc(N)cc3)C=C(c3ccccc3)C(c3ccccc3)=C2)cc1` was tested, and the TGI was > 72.1 µM.
In the case of `COC(=O)C1=C(C)NC(C)=C(C(=O)OC)C1c1nc2sccn2c1[N+](=O)[O-]`, the TGI is reported as > 100 µM.
In the case of `Nc1nc(Cl)cc(NCC2(CO)CCCC2)n1`, the TGI is reported as > 100 µM.

The molecules below were run on OVCAR-8 ovarian (assay: NCI-60 cell line screen, 48 h).
For `COc1ccc(C2OC(c3ccncc3)=NN2C)cc1OC` (stereo not given), the TGI was > 100 µM.
In the case of `CC12CCC(O)CC1CCC1C2CCC2(C)C(C(=O)CC(O)C(F)(F)F)CCC12` (stereo not given), the TGI is reported as > 100 µM.
`CC(C)(C)OC(=O)NCCCNC1(c2cc3ccccc3s2)CCCCC1` was tested, and the TGI was 35.1 µM.
`COC1C=COC2(C)Oc3c(C)c(O)c4c(O)c(c(C5SCCS5)c(O)c4c3C2=O)NC(=O)C(C)=C/C=C\C(C)C2OC(C)(C)OC(C2C)C(C)C(OC(C)=O)C1C` (stereo not given) was tested, and the TGI was 28.5 µM.
In the case of `C=CCOc1ccc(C2(O)c3ccccc3C3=NCCCN32)cc1` (stereo not given), the TGI is reported as > 100 µM.
In the case of `CCOC(=O)NC(Nc1ccc([N+](=O)[O-])cc1)(C(F)(F)F)C(F)(F)F`, the TGI is reported as > 100 µM.
Molecule `CCC/C(Cl)=N\OC(=O)Nc1ccc(OC(F)(F)F)cc1` has a TGI of 36.3 µM.
For `C[N+]12CCCCC1C(CN1C(=O)Cc3c4ccccc4c(c4ccccc34)CC1=O)CCC2` (stereo not given), the TGI was > 100 µM.
`CC(=O)O[C@H]1CC[C@@]2(C)C(=CC[C@H]3[C@@H]4C[C@H](N5CCOCC5)[C@H](OC(C)=O)[C@@]4(C)CC[C@@H]32)C1` was tested, and the TGI was > 100 µM.
With `CCN1CCC(O)(/C=C/c2ccc(C)cc2C)C(C(=O)/C=C/c2ccc(C)cc2C)C1` (stereo not given) the TGI was 5.08 µM.
With `CC1=NNC(=O)C1C(CC(=O)c1c[nH]c2ccccc12)C(=O)O` (stereo not given) the TGI was > 100 µM.
With `C=C([C@@]1(O)C[C@H]2[C@H](CCC2(OC)OC)[C@@H]2c3ccccc3O[C@@H]21)[Si](C)(C)C` the TGI was > 100 µM.
`COc1ccc2c(c1)CCN1CCc3ccccc3CC21` (stereo not given) was tested, and the TGI was > 100 µM.
In the case of `CN(C)CCOC1(Cc2ccc(F)cc2)CCC(C(C)(C)C)CC1` (stereo not given), the TGI is reported as 25.1 µM and 26.9 µM.
In the case of `Nc1ccc(C(=O)N2CCC[C@H]2CO)c(N)c1`, the TGI is reported as > 100 µM.
`On1c(-c2ccccc2)nc2ccccc2c1=S` was tested, and the TGI was > 100 µM.
`Nc1ccc(S2(c3ccc(N)cc3)C=C(c3ccccc3)C(c3ccccc3)=C2)cc1` gave a TGI of 98.4 µM.
With `COC(=O)C1=C(C)NC(C)=C(C(=O)OC)C1c1nc2sccn2c1[N+](=O)[O-]` the TGI was > 100 µM.
In the case of `Nc1nc(Cl)cc(NCC2(CO)CCCC2)n1`, the TGI is reported as > 100 µM.

These molecules were tested on HOP-92 NSCLC (assay: NCI-60 cell line screen, 48 h).
In the case of `COc1ccc(C2OC(c3ccncc3)=NN2C)cc1OC` (stereo not given), the TGI is reported as > 100 µM.
`CC12CCC(O)CC1CCC1C2CCC2(C)C(C(=O)CC(O)C(F)(F)F)CCC12` (stereo not given) was tested, and the TGI was > 85.2 µM.
For `CC(C)(C)OC(=O)NCCCNC1(c2cc3ccccc3s2)CCCCC1`, the TGI was 22.6 µM.
`COC1C=COC2(C)Oc3c(C)c(O)c4c(O)c(c(C5SCCS5)c(O)c4c3C2=O)NC(=O)C(C)=C/C=C\C(C)C2OC(C)(C)OC(C2C)C(C)C(OC(C)=O)C1C` (stereo not given) gave a TGI of 24.9 µM.
`C=CCOc1ccc(C2(O)c3ccccc3C3=NCCCN32)cc1` (stereo not given) was tested, and the TGI was > 100 µM.
In the case of `CCOC(=O)NC(Nc1ccc([N+](=O)[O-])cc1)(C(F)(F)F)C(F)(F)F`, the TGI is reported as > 100 µM.
`CCC/C(Cl)=N\OC(=O)Nc1ccc(OC(F)(F)F)cc1` showed a TGI of 4.48 µM.
With `C[N+]12CCCCC1C(CN1C(=O)Cc3c4ccccc4c(c4ccccc34)CC1=O)CCC2` (stereo not given) the TGI was > 100 µM.
With `CC(=O)O[C@H]1CC[C@@]2(C)C(=CC[C@H]3[C@@H]4C[C@H](N5CCOCC5)[C@H](OC(C)=O)[C@@]4(C)CC[C@@H]32)C1` the TGI was > 100 µM.
Molecule `CCN1CCC(O)(/C=C/c2ccc(C)cc2C)C(C(=O)/C=C/c2ccc(C)cc2C)C1` (stereo not given) has a TGI of 3.8 µM.
With `CC1=NNC(=O)C1C(CC(=O)c1c[nH]c2ccccc12)C(=O)O` (stereo not given) the TGI was > 100 µM.
In the case of `C=C([C@@]1(O)C[C@H]2[C@H](CCC2(OC)OC)[C@@H]2c3ccccc3O[C@@H]21)[Si](C)(C)C`, the TGI is reported as > 100 µM.
Work on `COc1ccc2c(c1)CCN1CCc3ccccc3CC21` (stereo not given) yielded a TGI of 68.3 µM.
Molecule `CN(C)CCOC1(Cc2ccc(F)cc2)CCC(C(C)(C)C)CC1` (stereo not given) has a TGI of 25.3 µM.
With `Nc1ccc(C(=O)N2CCC[C@H]2CO)c(N)c1` the TGI was > 100 µM.
In the case of `On1c(-c2ccccc2)nc2ccccc2c1=S`, the TGI is reported as > 100 µM.
In the case of `Nc1ccc(S2(c3ccc(N)cc3)C=C(c3ccccc3)C(c3ccccc3)=C2)cc1`, the TGI is reported as > 100 µM.
With `COC(=O)C1=C(C)NC(C)=C(C(=O)OC)C1c1nc2sccn2c1[N+](=O)[O-]` the TGI was > 100 µM.
`Nc1nc(Cl)cc(NCC2(CO)CCCC2)n1` was tested, and the TGI was > 100 µM.

The molecules below were run on SK-MEL-2 melanoma (assay: NCI-60 cell line screen, 48 h).
For `COc1ccc(C2OC(c3ccncc3)=NN2C)cc1OC` (stereo not given), the TGI was > 100 µM.
With `CC12CCC(O)CC1CCC1C2CCC2(C)C(C(=O)CC(O)C(F)(F)F)CCC12` (stereo not given) the TGI was > 100 µM.
Work on `CC(C)(C)OC(=O)NCCCNC1(c2cc3ccccc3s2)CCCCC1` yielded a TGI of 37.6 µM.
In the case of `COC1C=COC2(C)Oc3c(C)c(O)c4c(O)c(c(C5SCCS5)c(O)c4c3C2=O)NC(=O)C(C)=C/C=C\C(C)C2OC(C)(C)OC(C2C)C(C)C(OC(C)=O)C1C` (stereo not given), the TGI is reported as 23.2 µM.
Molecule `C=CCOc1ccc(C2(O)c3ccccc3C3=NCCCN32)cc1` (stereo not given) has a TGI of 47 µM.
For `CCOC(=O)NC(Nc1ccc([N+](=O)[O-])cc1)(C(F)(F)F)C(F)(F)F`, the TGI was > 100 µM.
`CCC/C(Cl)=N\OC(=O)Nc1ccc(OC(F)(F)F)cc1` showed a TGI of 32.9 µM.
In the case of `C[N+]12CCCCC1C(CN1C(=O)Cc3c4ccccc4c(c4ccccc34)CC1=O)CCC2` (stereo not given), the TGI is reported as > 100 µM.
In the case of `CC(=O)O[C@H]1CC[C@@]2(C)C(=CC[C@H]3[C@@H]4C[C@H](N5CCOCC5)[C@H](OC(C)=O)[C@@]4(C)CC[C@@H]32)C1`, the TGI is reported as > 100 µM.
`CCN1CCC(O)(/C=C/c2ccc(C)cc2C)C(C(=O)/C=C/c2ccc(C)cc2C)C1` (stereo not given) was tested, and the TGI was 11.1 µM.
`CC1=NNC(=O)C1C(CC(=O)c1c[nH]c2ccccc12)C(=O)O` (stereo not given) was tested, and the TGI was > 100 µM.
In the case of `C=C([C@@]1(O)C[C@H]2[C@H](CCC2(OC)OC)[C@@H]2c3ccccc3O[C@@H]21)[Si](C)(C)C`, the TGI is reported as > 100 µM.
With `COc1ccc2c(c1)CCN1CCc3ccccc3CC21` (stereo not given) the TGI was > 100 µM.
In the case of `CN(C)CCOC1(Cc2ccc(F)cc2)CCC(C(C)(C)C)CC1` (stereo not given), the GI50 is reported as 10.8 µM and 2.78 µM and the TGI is reported as 24.4 µM and 8.73 µM.
For `Nc1ccc(C(=O)N2CCC[C@H]2CO)c(N)c1`, the TGI was > 100 µM.
Molecule `On1c(-c2ccccc2)nc2ccccc2c1=S` has a TGI of 42.8 µM.
For `Nc1ccc(S2(c3ccc(N)cc3)C=C(c3ccccc3)C(c3ccccc3)=C2)cc1`, the TGI was > 88.4 µM.
`COC(=O)C1=C(C)NC(C)=C(C(=O)OC)C1c1nc2sccn2c1[N+](=O)[O-]` was tested, and the TGI was > 100 µM.
With `Nc1nc(Cl)cc(NCC2(CO)CCCC2)n1` the TGI was > 100 µM.

These molecules were tested on K-562 leukemia (assay: NCI-60 cell line screen, 48 h).
For `COc1ccc(C2OC(c3ccncc3)=NN2C)cc1OC` (stereo not given), the TGI was > 100 µM.
In the case of `CC12CCC(O)CC1CCC1C2CCC2(C)C(C(=O)CC(O)C(F)(F)F)CCC12` (stereo not given), the TGI is reported as 17.4 µM.
Work on `CC(C)(C)OC(=O)NCCCNC1(c2cc3ccccc3s2)CCCCC1` yielded a TGI of 26.3 µM.
With `COC1C=COC2(C)Oc3c(C)c(O)c4c(O)c(c(C5SCCS5)c(O)c4c3C2=O)NC(=O)C(C)=C/C=C\C(C)C2OC(C)(C)OC(C2C)C(C)C(OC(C)=O)C1C` (stereo not given) the TGI was > 100 µM.
With `C=CCOc1ccc(C2(O)c3ccccc3C3=NCCCN32)cc1` (stereo not given) the TGI was > 87.2 µM.
`CCOC(=O)NC(Nc1ccc([N+](=O)[O-])cc1)(C(F)(F)F)C(F)(F)F` was tested, and the TGI was > 100 µM.
With `CCC/C(Cl)=N\OC(=O)Nc1ccc(OC(F)(F)F)cc1` the TGI was > 20.1 µM.
With `C[N+]12CCCCC1C(CN1C(=O)Cc3c4ccccc4c(c4ccccc34)CC1=O)CCC2` (stereo not given) the TGI was > 100 µM.
With `CC(=O)O[C@H]1CC[C@@]2(C)C(=CC[C@H]3[C@@H]4C[C@H](N5CCOCC5)[C@H](OC(C)=O)[C@@]4(C)CC[C@@H]32)C1` the TGI was > 100 µM.
In the case of `CCN1CCC(O)(/C=C/c2ccc(C)cc2C)C(C(=O)/C=C/c2ccc(C)cc2C)C1` (stereo not given), the TGI is reported as > 100 µM.
`CC1=NNC(=O)C1C(CC(=O)c1c[nH]c2ccccc12)C(=O)O` (stereo not given) was tested, and the TGI was > 100 µM.
`C=C([C@@]1(O)C[C@H]2[C@H](CCC2(OC)OC)[C@@H]2c3ccccc3O[C@@H]21)[Si](C)(C)C` was tested, and the TGI was > 100 µM.
For `COc1ccc2c(c1)CCN1CCc3ccccc3CC21` (stereo not given), the TGI was > 100 µM.
`CN(C)CCOC1(Cc2ccc(F)cc2)CCC(C(C)(C)C)CC1` (stereo not given) was tested, and the TGI was 5.05 µM and 7.04 µM.
In the case of `Nc1ccc(C(=O)N2CCC[C@H]2CO)c(N)c1`, the TGI is reported as > 100 µM.
For `On1c(-c2ccccc2)nc2ccccc2c1=S`, the TGI was > 100 µM.
For `Nc1ccc(S2(c3ccc(N)cc3)C=C(c3ccccc3)C(c3ccccc3)=C2)cc1`, the TGI was > 100 µM.
With `COC(=O)C1=C(C)NC(C)=C(C(=O)OC)C1c1nc2sccn2c1[N+](=O)[O-]` the TGI was > 100 µM.
`Nc1nc(Cl)cc(NCC2(CO)CCCC2)n1` was tested, and the TGI was > 100 µM.

The molecules below were run on UACC-257 melanoma (assay: NCI-60 cell line screen, 48 h).
`COc1ccc(C2OC(c3ccncc3)=NN2C)cc1OC` (stereo not given) was tested, and the TGI was > 100 µM.
With `CC12CCC(O)CC1CCC1C2CCC2(C)C(C(=O)CC(O)C(F)(F)F)CCC12` (stereo not given) the TGI was > 91.6 µM.
`CC(C)(C)OC(=O)NCCCNC1(c2cc3ccccc3s2)CCCCC1` gave a TGI of 30.8 µM.
For `COC1C=COC2(C)Oc3c(C)c(O)c4c(O)c(c(C5SCCS5)c(O)c4c3C2=O)NC(=O)C(C)=C/C=C\C(C)C2OC(C)(C)OC(C2C)C(C)C(OC(C)=O)C1C` (stereo not given), the TGI was 7.89 µM.
